This note sets out measurements from patent US11396506B2, “Amino acid compounds with unbranched linkers and methods of use” (Pliant Therapeutics, Inc., priority 2018, dated 2022).

The structures appear in SMILES notation.

Chain of recombinant human integrin αVβ6 (P06756 31-992): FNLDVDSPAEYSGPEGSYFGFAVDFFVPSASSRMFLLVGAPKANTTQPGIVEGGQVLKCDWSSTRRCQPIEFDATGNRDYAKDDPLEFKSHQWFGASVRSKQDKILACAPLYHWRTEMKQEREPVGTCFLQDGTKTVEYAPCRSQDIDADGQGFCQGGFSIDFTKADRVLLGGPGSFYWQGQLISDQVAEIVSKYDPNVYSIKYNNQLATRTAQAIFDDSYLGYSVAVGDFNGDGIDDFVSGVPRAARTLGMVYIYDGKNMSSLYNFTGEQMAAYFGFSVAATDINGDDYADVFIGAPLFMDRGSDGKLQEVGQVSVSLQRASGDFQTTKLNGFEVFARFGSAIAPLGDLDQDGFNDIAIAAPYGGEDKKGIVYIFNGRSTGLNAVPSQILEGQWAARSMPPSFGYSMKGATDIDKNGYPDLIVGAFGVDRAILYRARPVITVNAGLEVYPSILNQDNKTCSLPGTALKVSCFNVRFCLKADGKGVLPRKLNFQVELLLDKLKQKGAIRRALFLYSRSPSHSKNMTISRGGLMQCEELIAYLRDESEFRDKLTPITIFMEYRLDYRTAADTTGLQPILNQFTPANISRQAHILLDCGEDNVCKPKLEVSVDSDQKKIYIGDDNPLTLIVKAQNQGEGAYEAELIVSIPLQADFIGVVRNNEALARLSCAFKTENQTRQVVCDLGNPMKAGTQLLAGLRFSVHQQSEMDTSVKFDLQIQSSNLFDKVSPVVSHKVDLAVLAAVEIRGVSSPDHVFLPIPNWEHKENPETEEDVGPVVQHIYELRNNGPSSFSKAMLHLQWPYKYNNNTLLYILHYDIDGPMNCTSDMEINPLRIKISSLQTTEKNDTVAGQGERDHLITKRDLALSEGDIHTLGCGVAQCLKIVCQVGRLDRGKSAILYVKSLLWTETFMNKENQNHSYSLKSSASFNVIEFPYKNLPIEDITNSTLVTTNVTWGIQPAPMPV
Chain of recombinant human integrin αVβ6 (P18564 22-707): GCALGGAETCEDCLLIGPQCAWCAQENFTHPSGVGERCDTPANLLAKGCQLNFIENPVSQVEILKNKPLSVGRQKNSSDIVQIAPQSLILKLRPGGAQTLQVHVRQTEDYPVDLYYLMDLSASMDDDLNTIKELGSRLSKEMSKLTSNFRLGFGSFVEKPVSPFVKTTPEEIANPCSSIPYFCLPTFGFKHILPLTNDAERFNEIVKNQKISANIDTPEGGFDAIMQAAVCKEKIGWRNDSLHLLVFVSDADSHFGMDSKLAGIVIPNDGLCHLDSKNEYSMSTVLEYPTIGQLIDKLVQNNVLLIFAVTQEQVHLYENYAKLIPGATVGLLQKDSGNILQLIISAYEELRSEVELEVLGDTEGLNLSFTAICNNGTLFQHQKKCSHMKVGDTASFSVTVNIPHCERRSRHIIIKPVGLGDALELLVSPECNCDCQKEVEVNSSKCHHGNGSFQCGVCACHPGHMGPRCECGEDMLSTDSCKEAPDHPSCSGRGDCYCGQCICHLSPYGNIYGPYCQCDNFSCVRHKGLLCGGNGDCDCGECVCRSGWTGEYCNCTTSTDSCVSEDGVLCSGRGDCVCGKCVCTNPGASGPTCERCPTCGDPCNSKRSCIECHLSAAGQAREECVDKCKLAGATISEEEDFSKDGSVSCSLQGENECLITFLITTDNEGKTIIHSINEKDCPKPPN

This assay addresses recombinant human integrin αVβ6 (Homo sapiens (Human), UniProt P06756+P18564). Nature of the assay: Solid phase integrin αVβ6 binding assay. The following applies: recombinant TGFβ1 LAP as ligand, values given as ranges, read-out: αVβ6 Inhibition IC50 (nM) - range. As to the method: Example B1—Solid Phase Integrin αVβ6 Binding Assay
Microplates were coated with recombinant human integrin αVβ6 (2 μg/mL) in PBS (100 μL/well 25 OC, overnight). The coating solution was removed, washed with wash buffer (0.05% Tween 20; 0.5 mM MnCl2; in 1×TBS). Plate was blocked with 200 μL/well of Block Buffer (1% BSA; 5% sucrose; 0.5 mM MnCl2; in 1×TBS) at 37° C. for 2 h. Dilutions of testing compounds and recombinant TGFβ1 LAP (0.67 μg/mL) in binding buffer (0.05% BSA; 2.5% sucrose; 0.5 mM MnCl2; in 1×TBS) were added. The plate was incubated for 2 hours at 25° C., washed, and incubated for 1 hour with Biotin-Anti-hLAP. Bound antibody was detected by peroxidase-conjugated streptavidin. The IC50 values for testing compounds were calculated by a four-parameter logistic regression.
The compounds tested were compound samples prepared according to procedures described in the Synthetic Examples section, with the stereochemical purity as indicated in the Examples.
Regarding `CC(C)(C)OC(=O)N1CC(C)(OC(=O)N[C@@H](CCCCCCCc2ccc3c(n2)NCCC3)C(=O)O)C1` [Compound 32, (S)-2-((((1-(tert-butoxycarbonyl)-3-methylazetidin-3-yl)oxy)carbonyl)amino)-9-(5,6,7,8-tetrahydro-1,8-naphthyridin-2-yl)nonanoic Acid], the IC50 was less than 50 nM. For `CC1(C(=O)N[C@@H](CCCCCCCc2ccc3c(n2)NCCC3)C(=O)O)CCOCC1` [Compound 8, (S)-2-(4-methyltetrahydro-2H-pyran-4-carboxamido)-9-(5,6,7,8-tetrahydro-1,8-naphthyridin-2-yl)nonanoic Acid], the IC50 was less than 50 nM. Next, `NS(=O)(=O)CCC(=O)N[C@@H](CCCCCCCc1ccc2c(n1)NCCC2)C(=O)O` [Compound 38, (S)-2-(3-sulfamoylpropanamido)-9-(5,6,7,8-tetrahydro-1,8-naphthyridin-2-yl)nonanoic Acid]: 251 to 1000 nM; `CS(=O)(=O)CCCC(=O)N[C@@H](CCCCCCCc1ccc2c(n1)NCCC2)C(=O)O` [Compound 24, (S)-2-(4-(methylsulfonyl)butanamido)-9-(5,6,7,8-tetrahydro-1,8-naphthyridin-2-yl)nonanoic Acid]: 251 to 1000 nM. Next, `CS(=O)(=O)N1CCC(C(=O)N[C@@H](CCCCCCCc2ccc3c(n2)NCCC3)C(=O)O)CC1` [Compound 39, (S)-2-(1-(methylsulfonyl)piperidine-4-carboxamido)-9-(5,6,7,8-tetrahydro-1,8-naphthyridin-2-yl)nonanoic Acid]: less than 50 nM; `CC(=O)N1CCC(C(=O)N[C@@H](CCCCCCCc2ccc3c(n2)NCCC3)C(=O)O)CC1` [Compound 36, (S)-2-(1-acetylpiperidine-4-carboxamido)-9-(5,6,7,8-tetrahydro-1,8-naphthyridin-2-yl)nonanoic Acid]: 50 to 250 nM; `O=C(O)[C@H](CCCCCCCc1ccc2c(n1)NCCC2)NC(=O)[C@H]1CCOc2ccccc21` (mixture of isomers) [Compound 46, (S)-2-((S)-chromane-4-carboxamido)-9-(5,6,7,8-tetrahydro-1,8-naphthyridin-2-yl)nonanoic Acid and (S)-2-((R)-chromane-4-carboxamido)-9-(5,6,7,8-tetrahydro-1,8-naphthyridin-2-yl)nonanoic Acid]: 50 to 250 nM.

Regarding `O=C(O)[C@H](CCCCCCCc1ccc2c(n1)NCCC2)NC(=O)C1(C(F)(F)F)CCOCC1` [Compound 42, (S)-9-(5,6,7,8-tetrahydro-1,8-naphthyridin-2-yl)-2-(4-(trifluoromethyl)tetrahydro-2H-pyran-4-carboxamido)nonanoic Acid], the IC50 is less than 50 nM.

For the compound `CC1(C(=O)N[C@@H](CCCCCCCc2ccc3c(n2)NCCC3)C(=O)O)CCCCC1` [Compound 44, (S)-2-(1-methylcyclohexanecarboxamido)-9-(5,6,7,8-tetrahydro-1,8-naphthyridin-2-yl)nonanoic Acid], the IC50 was less than 50 nM.

In the case of `CS(=O)(=O)N1CCC[C@@H](C(=O)N[C@@H](CCCCCCCc2ccc3c(n2)NCCC3)C(=O)O)C1` (mixture of isomers) [Compound 37, (S)-2-((R)-1-(methylsulfonyl)piperidine-3-carboxamido)-9-(5,6,7,8-tetrahydro-1,8-naphthyridin-2-yl)nonanoic acid and (S)-2-((S)-1-(methylsulfonyl)piperidine-3-carboxamido)-9-(5,6,7,8-tetrahydro-1,8-naphthyridin-2-yl)nonanoic Acid], the IC50 is less than 50 nM.

For the compound `C[C@@]1(C(=O)N[C@@H](CCCCCCCc2ccc3c(n2)NCCC3)C(=O)O)CCCOC1` (mixture of isomers) [Compound 47, (S)-2-((R)-3-methyltetrahydro-2H-pyran-3-carboxamido)-9-(5,6,7,8-tetrahydro-1,8-naphthyridin-2-yl)nonanoic Acid and (S)-2-((S)-3-methyltetrahydro-2H-pyran-3-carboxamido)-9-(5,6,7,8-tetrahydro-1,8-naphthyridin-2-yl)nonanoic Acid], the IC50 lay in the range of 50 to 250 nM. For `O=C(N[C@@H](CCCCCCCc1ccc2c(n1)NCCC2)C(=O)O)C1CC2CCC(C1)O2` (stereo partly drawn) [Compound 43, (S)-2-((1R,3s,5S)-8-oxabicyclo[3.2.1]octane-3-carboxamido)-9-(5,6,7,8-tetrahydro-1,8-naphthyridin-2-yl)nonanoic acid and (S)-2-((1R,3r,5S)-8-oxabicyclo[3.2.1]octane-3-carboxamido)-9-(5,6,7,8-tetrahydro-1,8-naphthyridin-2-yl)nonanoic Acid], the IC50 was less than 50 nM. Turning to `O=C(O)[C@H](CCCCCCCc1ccc2c(n1)NCCC2)NC(=O)C12CC(C1)C2` [Compound 45, (S)-2-(bicyclo[1.1.1]pentane-1-carboxamido)-9-(5,6,7,8-tetrahydro-1,8-naphthyridin-2-yl)nonanoic Acid], the IC50 was less than 50 nM. To `O=C(N[C@@H](CCCCCCCc1ccc2c(n1)NCCC2)C(=O)O)C1CCNCC1` [Compound 34, (S)-2-(piperidine-4-carboxamido)-9-(5,6,7,8-tetrahydro-1,8-naphthyridin-2-yl)nonanoic Acid] belongs 50 to 250 nM. Next, `COCCCC(=O)N[C@@H](CCCCCCCc1ccc2c(n1)NCCC2)C(=O)O` [Compound 30, (S)-2-(4-methoxybutanamido)-9-(5,6,7,8-tetrahydro-1,8-naphthyridin-2-yl)nonanoic Acid]: 251 to 1000 nM.

Broadly, the IC50 is the midpoint of a concentration-inhibition curve.
